The results in this text go back to the NIST ThermoML archive (doi:10.1016/j.jct.2019.01.006).

For this data set the following is noted: for mass density: 101.33 kPa, Liquid, Vibrating tube method; for vapor or sublimation pressure: Transpiration method.

Usually mass density stands for the mass of a sample divided by its volume. As a reminder, the vapor or sublimation pressure is the equilibrium pressure above the liquid or solid.

± gives the expanded uncertainty stated by the source.

As to `CCCCCC` [hexane], the mass density by setting is: (293.15 K) 659.4 ± 4.1 kg/m3; (298.15 K) 654.8 ± 4.1 kg/m3; (303.15 K) 650.2 ± 4.1 kg/m3; (308.15 K) 645.4 ± 4.1 kg/m3; (313.15 K) 640.7 ± 4.1 kg/m3.
For `Cc1c(Cl)cccc1Nc1ncccc1C(=O)O` [2-(2-methyl-3-chloroanilino)nicotinic acid], the “vapor or sublimation pressure” value reads like this: (419.15 K, Crystal) 0.000753 ± 0.00012 kPa; (421.15 K, Crystal) 0.000867 ± 0.00013 kPa; (423.15 K, Crystal) 0.000966 ± 0.00013 kPa; (425.15 K, Crystal) 0.001118 ± 0.00013 kPa; (427.15 K, Crystal) 0.001294 ± 0.00013 kPa; (429.15 K, Crystal) 0.001475 ± 0.00013 kPa. The “vapor or sublimation pressure” value (431.15 K, Crystal) is given as 0.001694 ± 0.00014 kPa; the “vapor or sublimation pressure” value (433.15 K, Crystal) stood at 0.001933 ± 0.00014 kPa; the “vapor or sublimation pressure” value (435.15 K, Crystal) was found to be 0.002207 ± 0.00015 kPa; the “vapor or sublimation pressure” value (437.15 K, Crystal) worked out at 0.002483 ± 0.00016 kPa; the “vapor or sublimation pressure” value (439.15 K, Crystal) came to 0.002882 ± 0.00017 kPa; the “vapor or sublimation pressure” value (441.15 K, Crystal) worked out at 0.003179 ± 0.00018 kPa. Also, the “vapor or sublimation pressure” value (443.15 K, Crystal) is listed as 0.003735 ± 0.0002 kPa. In addition, under “Crystal, DTA”, the Normal melting temperature worked out at 232.60 ± 0.5 °C.
For `CCCCCCCCO` [octan-1-ol], the mass density is, setting by setting: (293.15 K) 825.1 ± 4 kg/m3; (298.15 K) 821.7 ± 4 kg/m3; (303.15 K) 818.3 ± 4 kg/m3; (308.15 K) 814.8 ± 4 kg/m3; (313.15 K) 811.4 ± 4 kg/m3.
